Test results as given in patent US4315023A, “1-Phenethylimidazole derivatives” (Westwood Pharmaceuticals, Inc., priority 1980, dated 1982).
Structures can show the parent of a compound that is named as a salt.

What was measured:
Staphylococcus aureus = assay: in vitro antibacterial activity (MIC), S. aureus; type: cell-based; conditions: Nutrient Broth
Trichophyton quinekeanum = Trichophyton quinekeanum induced skin infection in guinea pigs; type: in vivo, male guinea pigs; conditions: for EC50, Trichophyton Skin Infection: Table I, percentage drug concentration giving 50% of the score of untreated control, topical ointment; for EC50 (%) (95% CL), Trichophyton skin infection: Table II, N = 4, 3 applications day 1, 3 and 5; for Score, Determ. G / Score, Mean / Score, Determ. E / Score, Determ. F: lesion score 0-4
Procedure: In the guinea pig skin infection test, Trichophyton quinekeanum was cultured on a YGP agar slant at 28° C. for 10 days. Spores were collected from the mycelial mat and suspended in Sabouraud broth containing 2% of Tween 80. Groups of 3 male guinea pigs weighing between 400-500 g were used for each dose of test compound. The flanks of the animals were depilated and injured with sandpaper. The injured area was inoculated and rubbed with a glass rod on day 0 with 0.2 ml of the spore suspension containing 10^8 CFU/ml. The test compound was combined with a 1:1 mixture of polyethylene glycol 400 and 4000, and 0.3 ml of the ointment was applied to the infected area on day 1, 3 and 5. Lesions were examined on day 7 and scored as follows: 0, normal; 1, erythema; 2, erythema with whitish area; 3, erythema and numerous whitish areas; 4, erythema with confluent scaling and whitish pateches. A compound showing a mean score of 1.5 or less was considered active.
In the following Table I the antifungal activity of the test compound is reported as the EC50 value, which is the percentage drug concentration giving 50% of the score of untreated control animals. The EC50 was calculated by the method of least squares (K. Brounlee: Statistical Theory and Methodology in Science and Engineering, pages 345-349, Wiley Press, New York, 1965). In Table II a more detailed comparison on the in vivo antifungal activities of compound 3a and the isomeric prior art compound 2 are shown together with the data for compound 3b.
Treatment: 5 applications (day 0 to 4) against candida vaginal infection
and 3 applications (day 1, 3 and 5) against trichophyton skin infection

Streptococcus pneumoniae = assay: in vitro antibacterial activity (MIC), S. pneumoniae; type: cell-based; conditions: 50% Nutrient Broth + 5% human serum
S. faecalis = assay: in vitro antibacterial activity (MIC), S. faecalis; type: cell-based, Streptococcus faecalis; conditions: Enterococcus faecalis; Nutrient Broth
Candida albicans = Candida albicans induced vaginal infection in mice; type: in vivo, female mice; conditions: for EC50, Candida Vaginal Infection: Table I, percentage drug concentration giving 50% of the score of untreated control, intravaginal; for EC50 (%) (95% CL), Candida vaginal infection: Table II, N = 5, 5 applications day 0 to 4; for Score, Determination A / Score, Determination B / Score, Determination C / Score, Determination D / Score, Mean: score 0-4
Procedure: A majority of the compounds of formula 3 were evaluated together with the prior art compound of formula 2 in a Candida albicans induced vaginal infection in mice and a Trichophyton quinekeanum induced skin infection in guinea pigs. Sabouraud broth was inoculated with Candida albicans and the inoculum incubated for two days at 28° C. on a rotary shaker. Groups of four to five female mice weighing between 18-21 grams were infected intravaginally with a 0.01 ml portion of the cell suspension containing 10^8 cells/ml on day 0. The mice were treated subcutaneously with 0.5 mg of estradiol benzoate three days before and four days after infection. The test compounds were suspended in 1% carboxymethyl cellulose and 0.02 ml of the suspension was instilled intravaginally from day 0 (four hours after infection) to day 4 (5 applications). On day 7, vaginal exudate was taken by a thin glass rod and streaked on a YGP agar plate containing 100 mcg/ml of chloramphenicol. The plate was incubated for two days at 28° C. […] In the following Table I the antifungal activity of the test compound is reported as the EC50 value, which is the percentage drug concentration giving 50% of the score of untreated control animals. The EC50 was calculated by the method of least squares (K. Brounlee: Statistical Theory and Methodology in Science and Engineering, pages 345-349, Wiley Press, New York, 1965). In Table II a more detailed comparison on the in vivo antifungal activities of compound 3a and the isomeric prior art compound 2 are shown together with the data for compound 3b.

Streptococcus pyogenes = assay: in vitro antibacterial activity (MIC), S. pyogenes; type: cell-based; conditions: 50% Nutrient Broth + 5% human serum

SMILES: Clc1ccc(C(Cn2ccnc2)SCSCc2c(Cl)cccc2Cl)c(Cl)c1 (stereo not shown) [Compound 3e, 1-[2-(2,6-Dichlorobenzylthiomethylthio)-2-(2,4-dichlorophenyl)ethyl]1-H-imidazole hydrochloride]
- MIC (Staphylococcus aureus; Strain A): 0.25 µg/mL
- MIC (Staphylococcus aureus; Strain B): > 63 µg/mL
- MIC (Staphylococcus aureus; Strain C): 0.25 µg/mL
- EC50, Trichophyton Skin Infection (Trichophyton quinekeanum): 0.085%
- MIC (Streptococcus pneumoniae): > 63 µg/mL
- MIC (S. faecalis): 0.5 µg/mL
- EC50, Candida Vaginal Infection (Candida albicans): > 0.3%
- MIC (Streptococcus pyogenes): > 63 µg/mL

SMILES: Clc1ccc(CSCSC(Cn2ccnc2)c2ccc(Cl)cc2Cl)cc1 (stereo not shown) [Compound 3a, 1-[2-(4-Chlorobenzylthiomethylthio)-2-(2,4-dichlorophenyl)ethyl]1-H-imidazole hydrogen fumarate]
- MIC (Staphylococcus aureus; Strain A): 0.5 µg/mL
- MIC (Staphylococcus aureus; Strain B): > 63 µg/mL
- MIC (Staphylococcus aureus; Strain C): > 63 µg/mL
- EC50, Trichophyton Skin Infection (Trichophyton quinekeanum): 0.039%
- EC50 (%) (95% CL), Trichophyton skin infection (Trichophyton quinekeanum): 0.039%
- Score, Determ. G (Trichophyton quinekeanum; conc. 0.01%): 2.0
- Score, Mean (Trichophyton quinekeanum; conc. 0.01%): 2.0
- Score, Determ. E (Trichophyton quinekeanum; conc. 0.03%): 1.8
- Score, Determ. F (Trichophyton quinekeanum; conc. 0.03%): 2.5
- Score, Determ. G (Trichophyton quinekeanum; conc. 0.03%): 1.5
- Score, Mean (Trichophyton quinekeanum; conc. 0.03%): 1.9
- Score, Determ. E (Trichophyton quinekeanum; conc. 0.1%): 1.5
- Score, Determ. F (Trichophyton quinekeanum; conc. 0.1%): 1.0
- Score, Determ. G (Trichophyton quinekeanum; conc. 0.1%): 0.3
- Score, Mean (Trichophyton quinekeanum; conc. 0.1%): 0.92
- Score, Determ. E (Trichophyton quinekeanum; conc. 0.3%): 1.0
- Score, Determ. F (Trichophyton quinekeanum; conc. 0.3%): 0
- Score, Determ. G (Trichophyton quinekeanum; conc. 0.3%): 0
- Score, Mean (Trichophyton quinekeanum; conc. 0.3%): 0.33
- times more efficacious than prior art compound 2, Trichophyton induced skin infection in guinea pigs (Trichophyton quinekeanum; hydrogen fumarate of 3a vs prior art compound 2): about 2.5 times
- MIC (Streptococcus pneumoniae): 63 µg/mL
- MIC (S. faecalis): > 63 µg/mL
- EC50, Candida Vaginal Infection (Candida albicans): 0.0035%
- EC50 (%) (95% CL), Candida vaginal infection (Candida albicans): 0.0035%
- Score, Determination A (Candida albicans; conc. 0.0003%): 2.8
- Score, Determination B (Candida albicans; conc. 0.0003%): 2.2
- Score, Determination C (Candida albicans; conc. 0.0003%): 3.4
- Score, Determination D (Candida albicans; conc. 0.0003%): 2.5
- Score, Mean (Candida albicans; conc. 0.0003%): 2.6
- Score, Determination A (Candida albicans; conc. 0.001%): 3.0
- Score, Determination B (Candida albicans; conc. 0.001%): 2.2
- Score, Determination C (Candida albicans; conc. 0.001%): 2.8
- Score, Determination D (Candida albicans; conc. 0.001%): 2.0
- Score, Mean (Candida albicans; conc. 0.001%): 2.5
- Score, Determination A (Candida albicans; conc. 0.003%): 1.4
- Score, Determination B (Candida albicans; conc. 0.003%): 2.2
- Score, Determination C (Candida albicans; conc. 0.003%): 3.0
- Score, Determination D (Candida albicans; conc. 0.003%): 1.3
- Score, Mean (Candida albicans; conc. 0.003%): 2.0
- Score, Determination A (Candida albicans; conc. 0.01%): 1.5
- Score, Determination B (Candida albicans; conc. 0.01%): 0.4
- Score, Determination C (Candida albicans; conc. 0.01%): 1.3
- Score, Determination D (Candida albicans; conc. 0.01%): 1.3
- Score, Mean (Candida albicans; conc. 0.01%): 1.1
- Score, Determination A (Candida albicans; conc. 0.03%): 0.6
- Score, Determination B (Candida albicans; conc. 0.03%): 0.8
- Score, Determination C (Candida albicans; conc. 0.03%): 0
- Score, Determination D (Candida albicans; conc. 0.03%): 0.4
- Score, Mean (Candida albicans; conc. 0.03%): 0.45
- times more efficacious than prior art compound 2, Candida induced vaginal infection in mice (Candida albicans; relative to prior art compound 2 (for 3a: hydrogen fumarate vs hydrogen fumarate)): greater than 85 times
- MIC (Streptococcus pyogenes): 63 µg/mL

SMILES: Clc1ccc(CSCSC(Cn2ccnc2)c2ccc(Cl)cc2)cc1.O=C(O)/C=C/C(=O)O (stereo not shown) [Compound 3f, 1-[2-(4-Chlorobenzylthiomethylthio)-2-(4-chlorophenyl)ethyl]-1H-imidazole hydrogen fumarate]
- MIC (Staphylococcus aureus; Strain A): 1 µg/mL
- MIC (Staphylococcus aureus; Strain B): > 63 µg/mL
- MIC (Staphylococcus aureus; Strain C): 1 µg/mL
- MIC (Streptococcus pneumoniae): 63 µg/mL
- MIC (S. faecalis): 4 µg/mL
- MIC (Streptococcus pyogenes): 63 µg/mL

SMILES: Clc1ccc(C(Cn2ccnc2)SCSCc2ccc(Cl)cc2Cl)cc1.O=C(O)/C=C/C(=O)O (stereo not shown) [Compound 3g, 1-[2-(4-Chlorophenyl)-2-(2,4-dichlorobenzylthiomethylthio)ethyl]-1H-imidazole hydrogen fumarate]
- MIC (Staphylococcus aureus; Strain A): 1 µg/mL
- MIC (Staphylococcus aureus; Strain B): 8 µg/mL
- MIC (Staphylococcus aureus; Strain C): 2 µg/mL
- MIC (Streptococcus pneumoniae): 63 µg/mL
- MIC (S. faecalis): 1 µg/mL
- MIC (Streptococcus pyogenes): 63 µg/mL

SMILES: Clc1ccc(SCCSC(Cn2ccnc2)c2ccc(Cl)cc2Cl)cc1 (stereo not shown) [Compound 2, reference compound]
- EC50, Trichophyton Skin Infection (Trichophyton quinekeanum): 0.10%
- EC50 (%) (95% CL), Trichophyton skin infection (Trichophyton quinekeanum): 0.10%
- Score, Determ. F (Trichophyton quinekeanum; conc. 0.03%): 2.3
- Score, Mean (Trichophyton quinekeanum; conc. 0.03%): 2.3
- Score, Determ. F (Trichophyton quinekeanum; conc. 0.1%): 2.3
- Score, Mean (Trichophyton quinekeanum; conc. 0.1%): 2.3
- Score, Determ. F (Trichophyton quinekeanum; conc. 0.3%): 0.5
- Score, Mean (Trichophyton quinekeanum; conc. 0.3%): 0.5
- EC50, Candida Vaginal Infection (Candida albicans): > 0.3%
- EC50 (%) (95% CL), Candida vaginal infection (Candida albicans): > 0.3%
- Score, Determination A (Candida albicans; conc. 0.03%): 2.8
- Score, Determination B (Candida albicans; conc. 0.03%): 3.2
- Score, Mean (Candida albicans; conc. 0.03%): 3.0
- Score, Determination A (Candida albicans; conc. 0.1%): 2.4
- Score, Determination B (Candida albicans; conc. 0.1%): 3.0
- Score, Mean (Candida albicans; conc. 0.1%): 2.7
- Score, Determination A (Candida albicans; conc. 0.3%): 3.4
- Score, Determination B (Candida albicans; conc. 0.3%): 1.8
- Score, Mean (Candida albicans; conc. 0.3%): 2.6

SMILES: Cl.Clc1ccc(C(Cn2ccnc2)SCSCc2ccc(Cl)s2)c(Cl)c1 (stereo not shown) [Compound 3i, 1-[2-(5-Chloro-2-thienylmethylthiomethylthio)-2-(2,4-dichlorophenyl)ethyl]-1H-imidazole hydrochloride]
- EC50, Trichophyton Skin Infection (Trichophyton quinekeanum): 0.038%
- EC50, Candida Vaginal Infection (Candida albicans): 0.0022%

SMILES: Cc1ccc(CSCSC(Cn2ccnc2)c2ccc(Cl)cc2Cl)cc1.O=C(O)/C=C/C(=O)O (stereo not shown) [Compound 3c, 1-[2-(2,4-Dichlorophenyl)-2-(4-methylbenzylthiomethylthio)ethyl]-1H-imidazole hydrogen fumarate]
- MIC (Staphylococcus aureus; Strain A): 0.5 µg/mL
- MIC (Staphylococcus aureus; Strain B): > 63 µg/mL
- MIC (Staphylococcus aureus; Strain C): 0.5 µg/mL
- EC50, Trichophyton Skin Infection (Trichophyton quinekeanum): 0.046%
- MIC (Streptococcus pneumoniae): 63 µg/mL
- MIC (S. faecalis): 2 µg/mL
- EC50, Candida Vaginal Infection (Candida albicans): 0.0042%
- MIC (Streptococcus pyogenes): 63 µg/mL
